{"source": "patent US20240173317A1", "about": "“METHODS FOR TREATING PROGRESSIVE FAMILIAL INTRAHEPATIC CHOLESTASIS” (MIRUM PHARMACEUTICALS, INC., priority 2022, published 2024)", "key": {"[1]": {"tested_on": "participants with ALGS", "assay": "TEAEs in participants with ALGS aged 16 years and older", "assay_type": "in vivo, human", "source_text": "The efficacy and safety of MRX in participants with ALGS aged ≥16 years transitioning to adult care and participant aged ≥16 years who initiate MRX treatment were studied (FIG. 30). The median (min, max) duration of therapy for participants who initiated MRX at <16 years of age was 4.1 years (1.5, 5.9), with the oldest patient taking MRX (Table 13). Three participants began MRX at ≥16 years of age and were followed for a median of 3.8 years."}, "[2]": {"tested_on": "subjects with PFIC", "assay": "EDQ(Obs) sleep disturbance score, MARCH-PFIC Phase 3 study", "assay_type": "in vivo, human", "details": "All-PFIC; FIG. 27D", "source_text": "The terms “EDQ(Obs)”, “EDQ(Pt)”, and “EDQ” as used herein, refer to Exploratory Diary Questionnaire that are used to assess pruritus in children under the age of 18 or adults of at least 18 years of age. EDQ is a caregiver/patient reported outcome measure administered as a twice daily electronic diary. EDQ contained a question about sleep related to pruritus: “because of itch, my child had trouble staying asleep. 1—Never, 2—Rarely, 3—ometimes, 4—Often, or 5—Almost Always.” Caregivers for all subjects aged <9 years completed the Observer instrument: EDQ(Obs). Subjects ≥9 years of age completed the patient instrument: EDQ(Pt). EDQ includes questions on sleep disturbances related to pruritus.\nExploratory Diary Questionnaire. Pruritus was assessed using the EDQ caregiver/patient reported outcome measure administered as a twice daily electronic diary. […] Pruritus was assessed and recorded twice daily by subjects or caregivers, via EDQ, beginning with the day after the screening visit and every day throughout the duration of the study, as described in Table 2.\nMethods: Participants were randomized to receive MRX 570 μg/kg BID or placebo (PBO) (FIG. 27A). The primary analysis evaluated pruritus as assessed by the caregiver using ItchRO(Obs) 0-4 scale; as well as by physician using the Clinician Scratch Scale (CSS). Sleep was assessed using the Exploratory Diary Questionnaire (Observer) (EDQ[Obs]). […]"}, "[3]": {"details": "ALGS, aged <16 y at MRX initiation (n = 11), After 16 y"}, "[4]": {"details": "ALGS, aged <16 y at MRX initiation (n = 11), Before 16 y"}, "[5]": {"details": "ALGS, aged >16 y at MRX initiation (n = 3)"}}, "data": [{"smiles": "CCCCC1(CCCC)CS(=O)(=O)c2ccc(N(C)C)cc2[C@@H](c2ccc(OCc3ccc(C[N+]45CCN(CC4)CC5)cc3)cc2)[C@H]1O", "note": "[maralixibat, 1-(4-((4-((4R,5R)-3,3-dibutyl-7-(dimethylamino)-4-hydroxy-1,1-dioxido-2,3,4,5-tetrahydrobenzo[b]thiepin-5-yl)phenoxy)methyl)benzyl)-1,4-diazabicyclo[2.2.2]octan-1-ium]", "values": [{"measurement": "tolerability", "setting": "[1]; ALGS participants aged 16 years and older", "result": "generally well tolerated"}, {"measurement": "Any TEAEs, %", "setting": "[1]; [3]", "result": "(63.6) %"}, {"measurement": "Gastrointestinal TEAEs: Abdominal pain, %", "setting": "[1]; [3]", "result": "(18.2) %"}, {"measurement": "Gastrointestinal TEAEs: Diarrhoea, %", "setting": "[1]; [3]", "result": "(9.1) %"}, {"measurement": "SAEs, %", "setting": "[1]; [3]", "result": "(9.1) %"}, {"measurement": "TEAEs > grade 3, %", "setting": "[1]; [3]", "result": "(9.1) %"}, {"measurement": "Treatment-related AEs, %", "setting": "[1]; [3]", "result": "(18.2) %"}, {"measurement": "Any TEAEs, %", "setting": "[1]; [4]", "result": "(100) %"}, {"measurement": "Gastrointestinal TEAEs: Abdominal pain, %", "setting": "[1]; [4]", "result": "(45.5) %"}, {"measurement": "Gastrointestinal TEAEs: Diarrhoea, %", "setting": "[1]; [4]", "result": "(54.5) %"}, {"measurement": "SAEs, %", "setting": "[1]; [4]", "result": "(18.2) %"}, {"measurement": "TEAEs > grade 3, %", "setting": "[1]; [4]", "result": "(9.1) %"}, {"measurement": "Treatment-related AEs, %", "setting": "[1]; [4]", "result": "(81.8) %"}, {"measurement": "Any TEAEs, %", "setting": "[1]; [5]", "result": "(100) %"}, {"measurement": "Gastrointestinal TEAEs: Diarrhoea, %", "setting": "[1]; [5]", "result": "(33.3) %"}, {"measurement": "TEAEs > grade 3, %", "setting": "[1]; [5]", "result": "(33.3) %"}, {"measurement": "Treatment-related AEs ≥ grade 3, %", "setting": "[1]; [5]", "result": "(33.3) %"}, {"measurement": "Treatment-related AEs, %", "setting": "[1]; [5]", "result": "(66.7) %"}, {"measurement": "CFB in sleep (EDQ(Obs)), difference MRX vs PBO, delta [95% CI]", "setting": "[2]", "result": "significant improvements"}]}]}
